This note sets out measurements from patent publication US8129337B2, “Compositions comprising epigallocatechin gallate and protein hydrolysate” (DSM IP Assets B.V., priority 2005, dated 2012).

SMILES strings stand for the structures.

In this experiment the test system is db/db mice. Briefly: Pathologically changed islets of Langerhans in pancreata of db/db mice after 10 weeks of diet. The experiment is classed as in vivo, mouse. The following applies: 10 weeks of feeding the diet. The protocol:
Diets containing EGCG, or protein hydrolysate, or the combination of EGCG and protein hydrolysate, or placebo were administered to db/db mice (6 weeks old). The db/db mouse model of severe type 2 diabetes mellitus is well established and commonly used to assess the antidiabetic properties of nutritional or pharmaceutical interventions. Furthermore, the animals are characterized by a progressive loss of pancreatic function and pathological changes of pancreatic histology and morphology. The pancreatic damage occurring in db/db mice is the consequence of high blood glucose and lipid levels. After 10 weeks of administration of the respective diets pancreata of all mice were removed and assessed for pathologically changed islets of Langerhans.

Turning to `O=C(O[C@@H]1Cc2c(O)cc(O)cc2O[C@@H]1c1cc(O)c(O)c(O)c1)c1cc(O)c(O)c(O)c1` [EGCG, epigallocatechin gallate], the “Pathological islets (in % of total islets)” value (db/db mice (6 weeks old at start), n = 9 per group, means ± SEM) is on record as 36.5 ± 4.1 % of total islets. Moreover, the “Effect on pathologically changed islets of Langerhans compared to placebo (in words)” value (db/db mice) is on record as “less pathologically changed islets of Langerhans compared to placebo”.
